Test results as given in patent US20210253562A1, “ACYLSUFONAMIDE COMPOUNDS USEFUL AS EP3 RECEPTOR ANTAGONISTS” (Janssen Pharmaceutica NV, priority 2018, published 2021).
Where two headings read alike, the source gives them in different places.

Tests used:
[1] = molecular target: T1, CHO cells over-expressing the EP3 receptor (Homo sapiens, UniProt P43115); assay: CHO cell cAMP assay; EP3 cAMP antagonist dose response (sulprostone reference), HTRF; assay type: cell-based; settings: sulprostone 700 nM (EC80) and FSK 2 μM (EC70); read-out: CHO_cAMP IC50
T1 construct: expressed in transfected cells; host or cells: CHO cells
T1 sequence (P43115 1-390): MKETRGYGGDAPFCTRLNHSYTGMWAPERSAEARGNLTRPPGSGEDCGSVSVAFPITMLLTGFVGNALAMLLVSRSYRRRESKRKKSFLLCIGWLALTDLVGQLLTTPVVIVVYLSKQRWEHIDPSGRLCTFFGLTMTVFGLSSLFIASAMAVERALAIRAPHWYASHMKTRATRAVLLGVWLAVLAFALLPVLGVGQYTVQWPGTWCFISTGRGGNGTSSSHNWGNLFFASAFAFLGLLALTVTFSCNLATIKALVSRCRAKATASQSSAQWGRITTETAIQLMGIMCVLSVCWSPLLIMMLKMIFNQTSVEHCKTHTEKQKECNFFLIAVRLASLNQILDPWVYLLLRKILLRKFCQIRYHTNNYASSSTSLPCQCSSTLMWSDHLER
Protocol: Biological Example 2: CHO Cell cAMP Assay
This assay monitored the cAMP generation in CHO cells over-expressing the EP3 receptor in the presence or absence of antagonist stimulated with Forskolin (FSK, CAS No. 66428-89-5) and a known EP3 Agonist (sulprostone, CAS No. 60325-46-4). For detection, a homogeneous competitive immunoassay (Time Resolved Fluorescence Energy Transfer (hTR-FRET)) was used.
Cells (6K cells per well) were plated in Poly-D-Lysine coated plates the day before the assay was to be run and were incubated at 37° C. One hour before the assay the media was removed and replaced with assay buffer (500 mL HBSS (+Ca)+2.5 mL 1M HEPES+6.66 mL 7.5% BSA) (starved at 37° C.). At the start of the assay the buffer was removed from the cells and replaced with buffer containing test compound(s). Sulprostone at an EC80 dose (700 nM) and FSK at an EC70 dose (2 μM) were added to initiate the reaction (37° C. for 30 minutes).
FSK increases cAMP production and sulprostone decreases cAMP production produced by FSK. In this assay, EP3 antagonists will increase the cAMP to the level of cAMP generated by FSK alone.
The reaction was terminated with the addition of cAMP detection reagents (labeled cAMP and labeled cAMP antibody in lysis buffer (HTRF reagent, which utilizes a cryptate-labeled anti-cAMP and d2-labeled cAMP-d2 is an HTRF acceptor fluorophore)). Approximately one hour later the plates were read on an Envision (Perkin Elmer) in HTRF mode. Well results were calculated based on a ratio of counts at 665 nm and 615 nm (data output was a calculation of the ratio: (read @665 nm/read @ 615 nm)*1000. For test compounds dosed serially, well results were converted to nM cAMP using a cAMP standard run on each plate. nM cAMP from a set of wells dosed with test compound(s) were plotted. nM cAMP was calculated for each well from a standard curve located on each plate (P1-12 and P13-24) by first calculating the slope and deriving the intercept(b):
[formula] NScAMP_s tan dard_cruve=m(nM cAMP_s tan dard_curve)+b
NSP, NSN, NSsample were converted to nM cAMP using the following equation: […]
IC50 values were determined from a […] (Hill equation) of a single 11-point compound dosing. A best-fit curve was determined by the minimum sum of squares method plotting cAMP produced vs compound concentration.

[2] = molecular target: T2, EP3 membrane (EP3 receptor) (Homo sapiens, UniProt P43115); assay: [3H]-PGE2 binding; EP3 competition binding (SPA)
T2 construct: purchased Millipore HTS092M
T2 sequence (P43115 1-390): T1 sequence (P43115 1-390)
How it was run: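 Ki derived from one-site nonlinear regression of scintillation proximity counts after 2 h room-temperature equilibration. Serially diluted (1:3) compounds competed against [3H]-PGE2 (2 nM) for EP3 receptor membranes (2 μg/well) in pH 7.4 Tris buffer with 10 mM MgCl2, 1 mM EDTA, 0.1% DMSO.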

Question: For `O=C(NC/C=C1\CCCc2cnn(Cc3ccc(Cl)cc3Cl)c21)NS(=O)(=O)c1cc(Cl)c(Cl)s1` [Compound #7, (E)-4,5-dichloro-N-((2-(1-(2,4-dichlorobenzyl)-1,4,5,6-tetrahydro-7H-indazol-7-ylidene)ethyl)carbamoyl)thiophene-2-sulfonamide], which IC50 [1] is on record?
Answer: Its IC50 is 11 nM.

Question: And the Ki ([2]; unit nM)?
Answer: The Ki was 0.5 nM.

Question: How did the IC50 [1] turn out when `O=C(CC/C=C1\CCCc2cnn(Cc3ccc(Cl)cc3Cl)c21)NS(=O)(=O)c1cc(Cl)c(Cl)s1` [Compound #8, (E)-4-(1-(2,4-dichlorobenzyl)-1,4,5,6-tetrahydro-7H-indazol-7-ylidene)-N-((4,5-dichlorothiophen-2-yl)sulfonyl)butanamide] was run?
Answer: Its IC50 is 2 nM.

Question: And the Ki ([2]; unit nM)?
Answer: The Ki was 0.1 nM.

Question: For `O=C(NC/C=C1\CCCc2cnn(Cc3ccc(Cl)cc3Cl)c21)NS(=O)(=O)c1cc(F)cc(F)c1` [Compound #9, (E)-N-((2-(1-(2,4-dichlorobenzyl)-1,4,5,6-tetrahydro-7H-indazol-7-ylidene)ethyl)carbamoyl)-3,5-difluorobenzenesulfonamide], which IC50 [1] is on record?
Answer: The IC50 was 14 nM.

Question: What about the Ki [2] of the same compound?
Answer: The Ki was 6 nM.

Question: Which results are given for `O=C(NC/C=C1\CCCc2cnn(Cc3ccc(Cl)cc3Cl)c21)NS(=O)(=O)c1cccs1` [Compound #10, (E)-N-((2-(1-(2,4-dichlorobenzyl)-1,4,5,6-tetrahydro-7H-indazol-7-ylidene)ethyl)carbamoyl)thiophene-2-sulfonamide]?
Answer: IC50 [1]: 28 nM; Ki [2]: 15 nM

Question: What does the source list for `O=C(NC/C=C1\CCCc2cnn(Cc3ccc(Cl)cc3Cl)c21)NS(=O)(=O)c1ccc(Cl)s1` [Compound #11, (E)-5-chloro-N-((2-(1-(2,4-dichlorobenzyl)-1,4,5,6-tetrahydro-7H-indazol-7-ylidene)ethyl)carbamoyl)thiophene-2-sulfonamide]?
Answer: IC50 [1]: 2 nM; Ki [2]: 1 nM

Question: How did the IC50 [1] turn out when `O=C(NC/C=C1\CCCc2cnn(Cc3ccc(Cl)cc3Cl)c21)NS(=O)(=O)c1cnc2ccccc2c1` [Compound #12, (E)-N-((2-(1-(2,4-dichlorobenzyl)-1,4,5,6-tetrahydro-7H-indazol-7-ylidene)ethyl)carbamoyl)quinoline-3-sulfonamide] was run?
Answer: Its IC50 is 48 nM.

Question: What about the Ki [2] of the same compound?
Answer: The Ki was 19 nM.

Question: `COc1ccc(S(=O)(=O)NC(=O)NC/C=C2\CCCc3cnn(Cc4ccc(Cl)cc4Cl)c32)cc1` [Compound #13, (E)-N-((2-(1-(2,4-dichlorobenzyl)-1,4,5,6-tetrahydro-7H-indazol-7-ylidene)ethyl)carbamoyl)-4-methoxybenzenesulfonamide] was tested. Which IC50 [1] did it give?
Answer: The IC50 was 29 nM.

Question: What about the Ki [2] of the same compound?
Answer: Its Ki is 10 nM.

Question: Which results are given for `CC(C)S(=O)(=O)NC(=O)C/C=C1\CCCc2cnn(Cc3ccc(Cl)cc3Cl)c21` [Compound #14, (E)-3-(1-(2,4-dichlorobenzyl)-1,4,5,6-tetrahydro-7H-indazol-7-ylidene)-N-(isopropylsulfonyl)propenamide]?
Answer: IC50 [1]: 3700 nM; Ki [2]: 2000 nM

Question: What does the source list for `O=C(NC/C=C1\CCCc2cnn(Cc3ccc(Cl)cc3Cl)c21)NS(=O)(=O)c1nc2ccccc2s1` [Compound #15, (E)-N-((2-(1-(2,4-dichlorobenzyl)-1,4,5,6-tetrahydro-7H-indazol-7-ylidene)ethyl)carbamoyl)benzo[d]thiazole-2-sulfonamide]?
Answer: IC50 [1]: 5 nM; Ki [2]: 1 nM

Question: For `O=C(NC/C=C1\CCCc2cnn(Cc3ccc(Cl)cc3Cl)c21)NS(=O)(=O)c1ccc2c(c1)OCCO2` [Compound #16, (E)-N-((2-(1-(2,4-dichlorobenzyl)-1,4,5,6-tetrahydro-7H-indazol-7-ylidene)ethyl)carbamoyl)-2,3-dihydrobenzo[b][1,4]dioxine-6-sulfonamide], which IC50 [1] is on record?
Answer: The IC50 was 27 nM.

Question: And the Ki [2]?
Answer: The Ki was 9 nM.

Question: How did the IC50 [1] turn out when `O=C(C/C=C1\CCCc2cnn(Cc3ccc(Cl)cc3Cl)c21)NS(=O)(=O)c1ccc(Cl)s1` [Compound #17] was run?
Answer: The IC50 was 74 nM.

Question: And the Ki [2]?
Answer: Its Ki is 19 nM.

Question: Which results are given for `O=C(C/C=C1\CCCc2cnn(Cc3ccc(Cl)cc3Cl)c21)NS(=O)(=O)c1ccc2c(c1)OCCO2` [Compound #18, (E)-3-(1-(2,4-dichlorobenzyl)-1,4,5,6-tetrahydro-7H-indazol-7-ylidene)-N-((2,3-dihydrobenzo[b][1,4]dioxin-6-yl)sulfonyl)propenamide]?
Answer: IC50 [1]: 662 nM; Ki [2]: 147 nM

Question: Which IC50 [1] does the source give for `O=C(C/C=C1\CCCc2cnn(Cc3ccc(Cl)cc3Cl)c21)NS(=O)(=O)c1cc(F)cc(F)c1` [Compound #19, (E)-3-(1-(2,4-dichlorobenzyl)-1,4,5,6-tetrahydro-7H-indazol-7-ylidene)-N-((3,5-difluorophenyl)sulfonyl)propenamide] here?
Answer: Its IC50 is 83 nM.

Question: And the Ki [2]?
Answer: The Ki was 14 nM.

Question: What does the source list for `O=C(C/C=C1\CCCc2cnn(Cc3ccc(Cl)cc3Cl)c21)NS(=O)(=O)c1cccs1` [Compound #20, (E)-3-(1-(2,4-dichlorobenzyl)-1,4,5,6-tetrahydro-7H-indazol-7-ylidene)-N-(thiophen-2-ylsulfonyl)propenamide]?
Answer: IC50 [1]: 1000 nM; Ki [2]: 280 nM

Question: What does the source list for `O=C(C/C=C1\CCCc2cnn(Cc3ccc(Cl)cc3Cl)c21)NS(=O)(=O)c1nc2ccccc2s1` [Compound #21]?
Answer: IC50 [1]: 330 nM; Ki [2]: 58 nM

Question: For `O=C(C/C=C1\CCCc2cnn(Cc3ccc(Cl)cc3Cl)c21)NS(=O)(=O)c1cnc2ccccc2c1` [Compound #22, (E)-3-(1-(2,4-dichlorobenzyl)-1,4,5,6-tetrahydro-7H-indazol-7-ylidene)-N-(quinolin-3-ylsulfonyl)propenamide], which IC50 [1] is on record?
Answer: Its IC50 is 2900 nM.

Question: What about the Ki [2] of the same compound?
Answer: The Ki was 373 nM.

Question: Which results are given for `COc1ccc(S(=O)(=O)NC(=O)C/C=C2\CCCc3cnn(Cc4ccc(Cl)cc4Cl)c32)cc1` [Compound #23, (E)-3-(1-(2,4-dichlorobenzyl)-1,4,5,6-tetrahydro-7H-indazol-7-ylidene)-N-((4-methoxyphenyl)sulfonyl)propenamide]?
Answer: IC50 [1]: 453 nM; Ki [2]: 256 nM

Question: For `O=C(CC/C=C1\CCCc2cnn(Cc3ccc(Cl)cc3Cl)c21)NS(=O)(=O)c1ccc(Cl)cc1` [Compound #24, (E)-N-((4-chlorophenyl)sulfonyl)-4-(1-(2,4-dichlorobenzyl)-1,4,5,6-tetrahydro-7H-indazol-7-ylidene)butanamide], which IC50 [1] is on record?
Answer: Its IC50 is 6 nM.

Question: What about the Ki [2] of the same compound?
Answer: The Ki was 3 nM.

Question: What does the source list for `O=C(C/C=C1\CCCc2cnn(Cc3ccc(Cl)cc3Cl)c21)NS(=O)(=O)c1cc2ccccc2s1` [Compound #25, (E)-N-(benzo[b]thiophen-2-ylsulfonyl)-3-(1-(2,4-dichlorobenzyl)-1,4,5,6-tetrahydro-7H-indazol-7-ylidene)propenamide]?
Answer: IC50 [1]: 251 nM; Ki [2]: 51 nM

Question: How did the IC50 [1] turn out when `O=C(C/C=C1\CCCc2cnn(Cc3ccc(Cl)cc3Cl)c21)NS(=O)(=O)c1cc2ccccc2o1` [Compound #26, (E)-N-(benzofuran-2-ylsulfonyl)-3-(1-(2,4-dichlorobenzyl)-1,4,5,6-tetrahydro-7H-indazol-7-ylidene)propenamide] was run?
Answer: Its IC50 is 699 nM.

Question: What about the Ki [2] of the same compound?
Answer: Its Ki is 85 nM.

Question: How did the IC50 [1] turn out when `O=C(NC/C=C1\CCCc2cnn(Cc3ccc(Cl)cc3Cl)c21)NS(=O)(=O)c1cc2ccccc2s1` [Compound #27, (E)-N-((2-(1-(2,4-dichlorobenzyl)-1,4,5,6-tetrahydro-7H-indazol-7-ylidene)ethyl)carbamoyl)benzo[b]thiophene-2-sulfonamide] was run?
Answer: The IC50 was 13 nM.

Question: What about the Ki [2] of the same compound?
Answer: Its Ki is 5 nM.

Question: How did the IC50 [1] turn out when `O=C(NC/C=C1\CCCc2cnn(Cc3ccc(Cl)cc3Cl)c21)NS(=O)(=O)c1cc2ccccc2o1` [Compound #28, (E)-N-((2-(1-(2,4-dichlorobenzyl)-1,4,5,6-tetrahydro-7H-indazol-7-ylidene)ethyl)carbamoyl)benzofuran-2-sulfonamide] was run?
Answer: The IC50 was 27 nM.

Question: And the Ki [2]?
Answer: Its Ki is 6 nM.

Question: Which results are given for `O=C(CC/C=C1\CCCc2cnn(Cc3ccc(Cl)cc3Cl)c21)NS(=O)(=O)c1ccc(Cl)s1` [Compound #29, (E)-N-((5-chlorothiophen-2-yl)sulfonyl)-4-(1-(2,4-dichlorobenzyl)-1,4,5,6-tetrahydro-7H-indazol-7-ylidene)butanamide]?
Answer: IC50 [1]: 2 nM; Ki [2]: 1 nM
